Results on 3 molecules are retold here after patent US20070129357A1, “Novel crystals of fluorobenzamide derivative” (priority 2003, published 2007).

One series has as its system If current. The following applies: stated as known from WO 00/75133; cited from earlier work.
Series [1] is described as follows: Hygroscopicity of the crystals (FIG. 5 and FIG. 6). The following applies: crystal forms of compound A compared, FIG. 5 (α-type, Example 3) and FIG. 6 (β-type, Example 2); monophosphate. Type of series: physicochemical.

Entries after “also recorded” stand apart in the source; their conditions may differ.

Consider `COc1cc2c(cc1OC)CN(C(=O)[C@@H]1CCCN(CCNC(=O)c3ccc(F)cc3)C1)CC2.O=P(O)(O)O` [compound A, (−)-N-{2-[(R)-3-(6,7-dimethoxy-1,2,3,4-tetrahydroisoquinoline-2-carbonyl)piperidino]ethyl}-4-fluorobenzamide monophosphate], for which the “inhibitory action for If current” value in the series with If current was “inhibitory action for If current”.

The term melting point denotes the temperature, or range, at which the solid turns liquid. With `COc1cc2c(cc1OC)CN(C(=O)[C@@H]1CCCN(CCNC(=O)c3ccc(F)cc3)C1)CC2.O=P(O)(O)O` [α-type crystal, (−)-N-{2-[(R)-3-(6,7-dimethoxy-1,2,3,4-tetrahydroisoquinoline-2-carbonyl)piperidino]ethyl}-4-fluorobenzamide monophosphate], the melting point lay in the range of 203.8 to 204.7 °C. The hygroscopicity result in series [1] is listed as “particularly good hygroscopicity; also recorded: superior to the β-type crystal in terms of hygroscopicity”.

Molecule `COc1cc2c(cc1OC)CN(C(=O)[C@@H]1CCCN(CCNC(=O)c3ccc(F)cc3)C1)CC2.O=P(O)(O)O` [β-type crystal, (−)-N-{2-[(R)-3-(6,7-dimethoxy-1,2,3,4-tetrahydroisoquinoline-2-carbonyl)piperidino]ethyl}-4-fluorobenzamide monophosphate] yielded a melting point of 195.5 to 196.3 °C.
